Reference: US7138361B2, “Herbicidal heterocycles” (E. I. du Pont de Nemours and Company, priority 2000, dated 2006)

How the values were obtained:
Assay type in all cases: in vivo
[1] = test system: cocklebur (Xanthium strumarium); assay: Test B preemergence
Method in brief: (§1)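 Preemergence: seeds planted and treated with test chemicals in non-phytotoxic solvent with surfactant; postemergence on plants 2–18 cm (1- to 4-leaf stage). Kept in greenhouse 13–15 days, then visually rated against controls on a 0 (no effect) to 100 (complete control) scale.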

[2] = test system: giant foxtail (Setaria faberii); assay: Test B preemergence
Method in brief: as §1

[3] = test system: morning glory (Ipomoea hederacea); assay: Test B preemergence
Method in brief: as §1

[4] = test system: pigweed (Amaranthus retroflexus); assay: Test B preemergence
Method in brief: as §1

[5] = test system: velvetleaf (Abutilon theophrasti); assay: Test B preemergence
Method in brief: as §1

[6] = test system: crabgrass (Digitaria sanguinalis); assay: Test B preemergence
Method in brief: as §1

[7] = test system: Surinam grass (Brachiaria decumbens); assay: Test B preemergence
Method in brief: as §1

[8] = test system: lambsquarters (Chenopodium album); assay: Test B preemergence
Method in brief: as §1

rice (Oryza saliva) [9] = assay: Test B preemergence
Method in brief: as §1

[10] = test system: barnyardgrass (Echinochloa crus-galli); assay: Test B preemergence
Method in brief: as §1

corn (Zea mays) [11] = assay: Test B preemergence
Method in brief: as §1

[12] = test system: smallflower flatsedge (Cyperus difformis); assay: Test C flooded paddy test; conditions: for Flatsedge plant response rating: Flooded Paddy, scale 0 to 100, 0 no effect, 100 complete control; for Plant response rating, Flatsedge: flooded paddy test, scale 0 to 100 (0 no effect, 100 complete control)
Method in brief: (§2)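 Visually assessed vs untreated controls 12–14 d post-treatment (greenhouse). Flooded paddy plants were at the 2-leaf stage; scale 0 = no effect, 100 = complete control.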

[13] = test system: duck salad (Heteranthera limosa); assay: Test C flooded paddy test; conditions: for Ducksalad plant response rating: Flooded Paddy, scale 0 to 100, 0 no effect, 100 complete control; for Plant response rating, Ducksalad: flooded paddy test, scale 0 to 100 (0 no effect, 100 complete control)
Method in brief: as §2

rice (Oryza saliva) [14] = assay: Test C flooded paddy test; conditions: for Rice plant response rating: Flooded Paddy, scale 0 to 100, 0 no effect, 100 complete control; for Plant response rating, Rice: flooded paddy test, scale 0 to 100 (0 no effect, 100 complete control)
Method in brief: as §2

[15] = test system: barnyardgrass (Echinochloa crus-galli); assay: Test C flooded paddy test; conditions: for Barnyardgrass plant response rating: Flooded Paddy, scale 0 to 100, 0 no effect, 100 complete control; for Plant response rating, Barnyardgrass: flooded paddy test, scale 0 to 100 (0 no effect, 100 complete control)
Method in brief: as §2

[16] = test system: cocklebur (Xanthium strumarium); assay: Test B postemergence
Description: (§3) Seeds selected from barnyardgrass (Echinochloa crus-galli), Surinam grass (Brachiaria decumbens), cocklebur (Xanthium strumarium), corn (Zea mays), crabgrass (Digitaria sanguinalis), giant foxtail (Setaria faberii), lambsquarters (Chenopodium album), morning glory (Ipomoea hederacea), pigweed (Amaranthus retroflexus), rice (Oryza saliva) and velvetleaf (Abutilon theophrasti) were planted and treated preemergence with test chemicals formulated in a non-phytotoxic solvent mixture which included a surfactant.
(§4) At the same time, plants selected from these crop and weed species and also blackgrass (Alopecurus myosuroides), wheat (Triticum aestivum) and wild oat (Avena fatua) were treated with postemergence applications of test chemicals formulated in the same manner. Plants ranged in height from 2 to 18 cm (1- to 4-leaf stage) for postemergence treatments. Plant species in the flooded paddy test consisted of rice (Oryza saliva), smallflower flatsedge (Cyperus difformis), duck salad (Heteranthera limosa) and barnyardgrass (Echinochloa crus-galli) grown to the 2-leaf stage for testing. Treated plants and controls were maintained in a greenhouse for 13 to 15 days, after which time all species were compared to controls and visually evaluated. Plant response ratings, summarized in Table B, are based on a scale of 0 to 100 where 0 is no effect and 100 is complete control. A dash (-) response means no test result.

[17] = test system: giant foxtail (Setaria faberii); assay: Test B postemergence
Description: as §3, §4

[18] = test system: morning glory (Ipomoea hederacea); assay: Test B postemergence
Description: as §3, §4

[19] = test system: pigweed (Amaranthus retroflexus); assay: Test B postemergence
Description: as §3, §4

[20] = test system: velvetleaf (Abutilon theophrasti); assay: Test B postemergence
Description: as §3, §4

[21] = test system: crabgrass (Digitaria sanguinalis); assay: Test B postemergence
Description: as §3, §4

[22] = test system: Surinam grass (Brachiaria decumbens); assay: Test B postemergence
Description: as §3, §4

[23] = test system: wheat (Triticum aestivum); assay: Test B postemergence
Description: as §3, §4

[24] = test system: lambsquarters (Chenopodium album); assay: Test B postemergence
Description: as §3, §4

[25] = test system: barnyardgrass (Echinochloa crus-galli); assay: Test B postemergence
Description: as §3, §4

corn (Zea mays) [26] = assay: Test B postemergence
Description: as §3, §4

[27] = test system: blackgrass (Alopecurus myosuroides); assay: Test B postemergence
Description: as §3, §4

wild oat (Avena fatua) = assay: Test B postemergence
Description: as §3, §4

[28] = preemergence, Rate 62 g/ha, scale of 0 to 100 where 0 is no effect and 100 is complete control, 13 to 15 days
[29] = preemergence, Rate 250 g/ha, scale 0 to 100, 0 no effect, 100 complete control
[30] = Rate 62 g/ha, scale 0 to 100, 0 no effect, 100 complete control
[31] = Rate 250 g/ha, scale 0 (no effect) to 100 (complete control), 13 to 15 days
[32] = Preemergence, Rate 500 g/ha, scale 0 to 100, 0 no effect, 100 complete control
[33] = preemergence, Rate 125 g/ha, scale of 0 to 100 where 0 is no effect and 100 is complete control, 13 to 15 days
[34] = Rate 125 g/ha, scale 0 (no effect) to 100 (complete control), 13 to 15 days
[35] = Rate 500 g/ha, scale 0 to 100, 0 is no effect, 100 is complete control, 13 to 15 days

## CCOc1cccc(N2CCC(n3ccc(C(CC)CC)n3)C2=O)c1 (centres unmarked) [Compound 125]
[1]; [28]
  Plant response rating, Cocklebur: 0
[1]; [29]
  Plant response rating, Cocklebur: 50
[2]; [28]
  Plant response rating, Foxtail, Giant: 100
[2]; [29]
  Plant response rating, Foxtail, Giant: 100
[3]; [28]
  Plant response rating, Morningglory: 50
[3]; [29]
  Plant response rating, Morningglory: 80
[4]; [28]
  Plant response rating, Pigweed: 100
[4]; [29]
  Plant response rating, Pigweed: 100
[5]; [28]
  Plant response rating, Velvetleaf: 0
[5]; [29]
  Plant response rating, Velvetleaf: 40
[6]; [28]
  Plant response rating, Crabgrass: 100
[6]; [29]
  Plant response rating, Crabgrass: 100
[7]; [28]
  Plant response rating, Surinam grass: 70
[7]; [29]
  Plant response rating, Surinam grass: 100
[8]; [28]
  Plant response rating, Lambsquarters: 100
[8]; [29]
  Plant response rating, Lambsquarters: 100
Rice (Oryza saliva) [9]; [28]
  Plant response rating, Rice: 50
Rice (Oryza saliva) [9]; [29]
  Plant response rating, Rice: 100
[10]; [28]
  Plant response rating, Barnyardgrass: 100
[10]; [29]
  Plant response rating, Barnyardgrass: 100
Corn (Zea mays) [11]; [28]
  Plant response rating, Corn: 20
Corn (Zea mays) [11]; [29]
  Plant response rating, Corn: 40
[12]; Rate 250 g/ha
  Flatsedge plant response rating: 100
[12]; Rate 500 g/ha
  Flatsedge plant response rating: 100
[12]; Rate 62 g/ha
  Plant response rating, Flatsedge: 100
[12]; Rate 125 g/ha
  Plant response rating, Flatsedge: 100
[13]; Rate 250 g/ha
  Ducksalad plant response rating: 100
[13]; Rate 500 g/ha
  Ducksalad plant response rating: 100
[13]; Rate 62 g/ha
  Plant response rating, Ducksalad: 40
[13]; Rate 125 g/ha
  Plant response rating, Ducksalad: 95
Rice (Oryza saliva) [14]; Rate 250 g/ha
  Rice plant response rating: 40
Rice (Oryza saliva) [14]; Rate 500 g/ha
  Rice plant response rating: 60
Rice (Oryza saliva) [14]; Rate 62 g/ha
  Plant response rating, Rice: 0
Rice (Oryza saliva) [14]; Rate 125 g/ha
  Plant response rating, Rice: 10
[15]; Rate 250 g/ha
  Barnyardgrass plant response rating: 100
[15]; Rate 500 g/ha
  Barnyardgrass plant response rating: 100
[15]; Rate 62 g/ha
  Plant response rating, Barnyardgrass: 65
[15]; Rate 125 g/ha
  Plant response rating, Barnyardgrass: 100
[16]; [30]
  Plant response rating, Cocklebur: 30
[16]; [31]
  Plant response rating, Cocklebur: 70
[17]; [30]
  Plant response rating, Foxtail, Giant: 0
[17]; [31]
  Plant response rating, Foxtail, Giant: 0
[18]; [30]
  Plant response rating, Morningglory: 50
[18]; [31]
  Plant response rating, Morningglory: 100
[19]; [30]
  Plant response rating, Pigweed: 30
[19]; [31]
  Plant response rating, Pigweed: 70
[20]; [30]
  Plant response rating, Velvetleaf: 0
[20]; [31]
  Plant response rating, Velvetleaf: 0
[21]; [30]
  Plant response rating, Crabgrass: 0
[21]; [31]
  Plant response rating, Crabgrass: 0
[22]; [30]
  Plant response rating, Surinam grass: 0
[22]; [31]
  Plant response rating, Surinam grass: 0
[23]; [30]
  Plant response rating, Wheat: 0
[23]; [31]
  Plant response rating, Wheat: 0
[24]; [30]
  Plant response rating, Lambsquarters: 100
[24]; [31]
  Plant response rating, Lambsquarters: 100
[25]; [30]
  Plant response rating, Barnyardgrass: 0
[25]; [31]
  Plant response rating, Barnyardgrass: 80
Corn (Zea mays) [26]; [30]
  Plant response rating, Corn: 0
Corn (Zea mays) [26]; [31]
  Plant response rating, Corn: 0
[27]; [30]
  Plant response rating, Blackgrass: 0
[27]; [31]
  Plant response rating, Blackgrass: 0
Wild oat (Avena fatua); [30]
  Plant response rating, Wild Oat: 0
Wild oat (Avena fatua); [31]
  Plant response rating, Wild Oat: 0

## Cc1ccc(N2CCC(n3ccc(C(C)(C)C)n3)C2=O)cc1OCCI (centres unmarked) [Compound 108]
[1]; [32]
  Plant response rating, Cocklebur: 0
[1]; [33]
  Plant response rating, Cocklebur: 0
[2]; [32]
  Plant response rating, Foxtail, Giant: 20
[2]; [33]
  Plant response rating, Foxtail, Giant: 0
[3]; [32]
  Plant response rating, Morningglory: 0
[3]; [33]
  Plant response rating, Morningglory: 0
[4]; [32]
  Plant response rating, Pigweed: 60
[4]; [33]
  Plant response rating, Pigweed: 20
[5]; [32]
  Plant response rating, Velvetleaf: 0
[5]; [33]
  Plant response rating, Velvetleaf: 0
[6]; [32]
  Plant response rating, Crabgrass: 0
[6]; [33]
  Plant response rating, Crabgrass: 0
[7]; [32]
  Plant response rating, Surinam grass: 30
[7]; [33]
  Plant response rating, Surinam grass: 0
[8]; [32]
  Plant response rating, Lambsquarters: 100
[8]; [33]
  Plant response rating, Lambsquarters: 100
Rice (Oryza saliva) [9]; [32]
  Plant response rating, Rice: 0
Rice (Oryza saliva) [9]; [33]
  Plant response rating, Rice: 0
[10]; [32]
  Plant response rating, Barnyardgrass: 0
[10]; [33]
  Plant response rating, Barnyardgrass: 0
Corn (Zea mays) [11]; [32]
  Plant response rating, Corn: 0
Corn (Zea mays) [11]; [33]
  Plant response rating, Corn: 0
[12]; Rate 250 g/ha
  Flatsedge plant response rating: 30
[12]; Rate 500 g/ha
  Flatsedge plant response rating: 90
[12]; Rate 62 g/ha
  Plant response rating, Flatsedge: 0
[12]; Rate 125 g/ha
  Plant response rating, Flatsedge: 0
[13]; Rate 250 g/ha
  Ducksalad plant response rating: 0
[13]; Rate 500 g/ha
  Ducksalad plant response rating: 0
[13]; Rate 62 g/ha
  Plant response rating, Ducksalad: 0
[13]; Rate 125 g/ha
  Plant response rating, Ducksalad: 0
Rice (Oryza saliva) [14]; Rate 250 g/ha
  Rice plant response rating: 0
Rice (Oryza saliva) [14]; Rate 500 g/ha
  Rice plant response rating: 0
Rice (Oryza saliva) [14]; Rate 62 g/ha
  Plant response rating, Rice: 0
Rice (Oryza saliva) [14]; Rate 125 g/ha
  Plant response rating, Rice: 0
[15]; Rate 250 g/ha
  Barnyardgrass plant response rating: 0
[15]; Rate 500 g/ha
  Barnyardgrass plant response rating: 20
[15]; Rate 62 g/ha
  Plant response rating, Barnyardgrass: 0
[15]; Rate 125 g/ha
  Plant response rating, Barnyardgrass: 0
[16]; [34]
  Plant response rating, Cocklebur: 20
[16]; [35]
  Plant response rating, Cocklebur: 40
[17]; [34]
  Plant response rating, Foxtail, Giant: 0
[17]; [35]
  Plant response rating, Foxtail, Giant: 0
[18]; [35]
  Plant response rating, Morningglory: 70
[19]; [35]
  Plant response rating, Pigweed: 40
[20]; [35]
  Plant response rating, Velvetleaf: 60
[21]; [34]
  Plant response rating, Crabgrass: 0
[21]; [35]
  Plant response rating, Crabgrass: 0
[22]; [34]
  Plant response rating, Surinam grass: 0
[22]; [35]
  Plant response rating, Surinam grass: 20
[23]; [35]
  Plant response rating, Wheat: 0
[24]; [35]
  Plant response rating, Lambsquarters: 80
[25]; [34]
  Plant response rating, Barnyardgrass: 0
[25]; [35]
  Plant response rating, Barnyardgrass: 0
Corn (Zea mays) [26]; [34]
  Plant response rating, Corn: 0
Corn (Zea mays) [26]; [35]
  Plant response rating, Corn: 0
[27]; [34]
  Plant response rating, Blackgrass: 0
[27]; [35]
  Plant response rating, Blackgrass: 0
Wild oat (Avena fatua); [35]
  Plant response rating, Wild Oat: 0
